Assay results from US4330552A, “Antiinflammatory 4,5-diaryl-2-arylthioimidazoles” (E. I. Du Pont de Nemours and Company, priority 1980, dated 1982).

Test system: adjuvant-induced arthritis in rats
Experiment: Established Adjuvant-Induced Arthritis in Rats (paw volume reduction)
Format: in vivo, Lewis (Wistar) male rats
Conditions: oral gavage once daily for 7 days (days 14-20), paw volume on day 21; for ED50: Rattus norvegicus, estimated from dose-response regression lines by inspection, read-out: Adjuvant Arthritis ED50 (50% decrease from control paw volume)

SMILES | percent paw volume reduction at the dose indicated (25 mg/kg) [%] | ED50 [mg/kg] | other results
COc1ccc(-c2nc(S(=O)(=O)c3ccc(F)cc3)[nH]c2-c2ccc(OC)cc2)cc1 [Example 7] |  |  | percent paw volume reduction at the dose indicated (27 mg/kg): 0%
COc1ccc(-c2nc(S(=O)(=O)c3ccc(Cl)cc3)[nH]c2-c2ccc(OC)cc2)cc1 [Example 5, 4,5-Bis(4-methoxyphenyl)-2-(4-chlorophenylsulfonyl)-1H-imidazole] | 31 |  | 
COc1ccc(Sc2nc(-c3ccc(OC)cc3)c(-c3ccc(OC)cc3)[nH]2)cc1 [Example 4] |  | 13 | 
COc1ccc(-c2nc(S(=O)(=O)c3ccccc3)[nH]c2-c2ccc(OC)cc2)cc1 [Example 6] |  | 58 | 
COc1ccc(-c2nc(Sc3ccc(Cl)cc3)[nH]c2-c2ccc(OC)cc2)cc1 [Example 1, 4,5-Bis(4-methoxyphenyl)-2-(4-chlorophenylthio)-1H-imidazole] |  | 10 | 
COc1ccc(-c2nc(Sc3ccccc3)[nH]c2-c2ccc(OC)cc2)cc1 [Example 2] | 32 |  | percent paw volume reduction at the dose indicated (50 mg/kg): 28%; percent paw volume reduction at the dose indicated (100 mg/kg): 32%
COc1ccc(-c2nc(Sc3ccc(F)cc3)[nH]c2-c2ccc(OC)cc2)cc1 [Example 3] | 35 |  | 
COc1ccc(-c2nc(S(=O)(=O)c3ccc(OC)cc3)[nH]c2-c2ccc(OC)cc2)cc1 [Example 8] | 16 |  | 
